For 37 molecules, EC50 results are on record in patent publication US8889668B2, “Oxadiazole diaryl compounds” (Merck Serono SA, priority 2007, dated 2014).

The target of the test is S1P1 (Homo sapiens (Human), UniProt P21453). In words: 35S-GTPγS binding, membranes from CHO cells expressing S1P1. The class given is biochemical. The conditions noted are these: 60 min 30° C., read-out: S1P1 GTPgS EC50.
Sequence of S1P1 (P21453 whole entry, species assumed): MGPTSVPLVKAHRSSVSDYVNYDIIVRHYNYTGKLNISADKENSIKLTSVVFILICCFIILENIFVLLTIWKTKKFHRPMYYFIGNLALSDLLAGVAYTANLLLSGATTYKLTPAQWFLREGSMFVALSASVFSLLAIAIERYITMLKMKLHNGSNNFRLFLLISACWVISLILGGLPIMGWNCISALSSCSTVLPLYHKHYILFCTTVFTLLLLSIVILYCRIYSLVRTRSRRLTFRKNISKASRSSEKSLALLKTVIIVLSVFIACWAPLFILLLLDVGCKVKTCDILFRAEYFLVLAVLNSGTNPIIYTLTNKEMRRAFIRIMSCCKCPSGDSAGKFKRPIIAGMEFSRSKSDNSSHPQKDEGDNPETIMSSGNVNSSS
Consider `COc1ccc(-c2ccc(-c3nc(-c4ccccc4OC(F)(F)F)no3)cc2C)c(OC)c1` [Compound I56, 5-(2′,4′-dimethoxy-2-methylbiphenyl-4-yl)-3-[2-(trifluoromethoxy)phenyl]-1,2,4-oxadiazole], for which the EC50 was 302 nM.
Regarding `Cc1cc(-c2nc(-c3ccccc3OC(F)(F)F)no2)ccc1N1CCOCC1` [Compound I65, 4-(2-methyl-4-{3-[2-(trifluoromethoxy)phenyl]-1,2,4-oxadiazol-5-yl}phenyl)morpholine], the EC50 is 130 nM.
Consider `COc1ccc(F)cc1-c1noc(-c2ccc(N3CCOCC3)c(C)c2)n1` [Compound I66, 4-{4-[3-(5-fluoro-2-methoxyphenyl)-1,2,4-oxadiazol-5-yl]-2-methylphenyl}morpholine], for which the EC50 came to 28 nM.
For the molecule `O=[N+]([O-])c1cc(-c2nc(-c3ccccc3OC(F)(F)F)no2)ccc1N1CCOCC1` [Compound I17, 4-(2-nitro-4-{3-[2-(trifluoromethoxy)phenyl]-1,2,4-oxadiazol-5-yl}phenyl)morpholine], the EC50 is 135 nM.
With `CC(C)Cc1ccc(-c2nc(-c3ccccc3OC(F)(F)F)no2)cc1` [Compound I30, 5-(4-isobutylphenyl)-3-[2-(trifluoromethoxy)phenyl]-1,2,4-oxadiazole], the EC50 amounted to 64 nM.
Regarding `Nc1cc(-c2nc(-c3ccccc3OC(F)(F)F)no2)ccc1N1CCCC(F)(F)C1` [Compound I41, 2-(3,3-difluoropiperidin-1-yl)-5-{3-[2-(trifluoromethoxy)phenyl]-1,2,4-oxadiazol-5-yl}aniline], the EC50 stood at 116 nM.
`COc1ccccc1-c1noc(-c2ccc(-c3ccccc3OC)c(C)c2)n1` [Compound I40, 5-(2′-methoxy-2-methylbiphenyl-4-yl)-3-(2-methoxyphenyl)-1,2,4-oxadiazole]: the EC50 amounted to 27 nM.
Regarding `CCOc1ccccc1-c1noc(-c2ccc(N3CCCCC3)c([N+](=O)[O-])c2)n1` [Compound I7, 1-{4-[3-(2-ethoxyphenyl)-1,2,4-oxadiazol-5-yl]-2-nitrophenyl}piperidine], the EC50 is 254 nM.
Consider `COc1ccccc1-c1noc(-c2ccc(-c3ccccc3C)c(OC)c2)n1` [Compound I46, 5-(2-methoxy-2′-methylbiphenyl-4-yl)-3-(2-methoxyphenyl)-1,2,4-oxadiazole], for which the EC50 was found to be 33 nM.
Regarding `COc1ccccc1-c1noc(-c2ccc(N3CCCCC3)c(C)c2)n1` [Compound I67, 1-{4-[3-(2-methoxyphenyl)-1,2,4-oxadiazol-5-yl]-2-methylphenyl}piperidine], the EC50 came out at 24 nM.
With `COc1ccc(F)cc1-c1noc(-c2ccc(-c3cccnc3C)c(C)c2)n1` [Compound I73, 3-{4-[3-(5-fluoro-2-methoxyphenyl)-1,2,4-oxadiazol-5-yl]-2-methylphenyl}-2-methylpyridine], the EC50 was found to be 341 nM.
Regarding `COc1ccc(F)cc1-c1noc(-c2ccc(N3CCCCC3)c(C)c2)n1` [Compound I68, 1-{4-[3-(5-fluoro-2-methoxyphenyl)-1,2,4-oxadiazol-5-yl]-2-methylphenyl}piperidine], the EC50 stood at 10 nM.
Turning to `COCCN(CCOC)c1ccc(-c2nc(-c3cc(F)ccc3OC)no2)cc1[N+](=O)[O-]` [Compound I51, 4-[3-(5-fluoro-2-methoxyphenyl)-1,2,4-oxadiazol-5-yl]-N,N-bis(2-methoxyethyl)-2-nitroaniline], the EC50 is 85 nM.
For the molecule `COc1ccccc1-c1noc(-c2ccc(N3CCCCCC3)c([N+](=O)[O-])c2)n1` [Compound I16, 1-{4-[3-(2-methoxyphenyl)-1,2,4-oxadiazol-5-yl]-2-nitrophenyl}azepane], the EC50 turned out to be 228 nM.
The value for `CN(c1ccc(-c2nc(-c3ccccc3OC(F)(F)F)no2)cc1[N+](=O)[O-])C1CCCCC1` [Compound I5, N-cyclohexyl-N-methyl-2-nitro-4-{3-[2-(trifluoromethoxy)phenyl]-1,2,4-oxadiazol-5-yl}aniline] was 589 nM; that for `Cc1cc(-c2nc(-c3ccccc3OC(F)(F)F)no2)ccc1-c1c(C)noc1C` [Compound I49, 5-[4-(3,5-dimethylisoxazol-4-yl)-3-methylphenyl]-3-[2-(trifluoromethoxy)phenyl]-1,2,4-oxadiazole] was 191 nM.
As for `COc1ccc(F)cc1-c1noc(-c2ccc(N3CCCCC3C)nc2)n1` (stereo not shown) [Compound I75, 5-[3-(5-fluoro-2-methoxyphenyl)-1,2,4-oxadiazol-5-yl]-2-(2-methylpiperidin-1-yl)pyridine], the EC50 came out at 1190 nM.
The value for `COCC1CCCN1c1ncc(-c2nc(-c3cc(F)ccc3OC)no2)cc1C` (stereo not shown) [Compound I76, 5-[3-(5-fluoro-2-methoxyphenyl)-1,2,4-oxadiazol-5-yl]-2-[2-(methoxymethyl)pyrrolidin-1-yl]-3-methylpyridine] was 522 nM; that for `COc1ccccc1-c1noc(-c2ccc(N3CCOCC3)c(N)c2)n1` [Compound I6, 5-[3-(2-methoxyphenyl)-1,2,4-oxadiazol-5-yl]-2-morpholin-4-ylaniline] was 712 nM.
For `COc1ccccc1-c1noc(-c2ccc(-c3c(C)noc3C)c(C)c2)n1` [Compound I50, 5-[4-(3,5-dimethylisoxazol-4-yl)-3-methylphenyl]-3-(2-methoxyphenyl)-1,2,4-oxadiazole], the EC50 amounted to 172 nM.
With `COc1ccccc1-c1noc(-c2ccc(N3CCCCC3)c(C(F)(F)F)c2)n1` [Compound I59, 1-[4-[3-(2-methoxyphenyl)-1,2,4-oxadiazol-5-yl]-2-(trifluoromethyl)phenyl]piperidine], the EC50 was 21 nM.
As for `COCCN(CCOC)c1ccc(-c2nc(-c3ccccc3OC)no2)cc1[N+](=O)[O-]` [Compound I52, N,N-bis(2-methoxyethyl)-4-[3-(2-methoxyphenyl)-1,2,4-oxadiazol-5-yl]-2-nitroaniline], the figure is 295 nM.
As for `O=[N+]([O-])c1cc(-c2nc(-c3ccccc3OC(F)(F)F)no2)ccc1N1CCCC1` [Compound I14, 5-(3-nitro-4-pyrrolidin-1-ylphenyl)-3-[2-(trifluoromethoxy)phenyl]-1,2,4-oxadiazole], the figure is 428 nM; as for `COc1ccccc1-c1noc(-c2ccc(-c3ccccc3C(F)(F)F)c(C)c2)n1` [Compound I24, 3-(2-methoxyphenyl)-5-[2-methyl-2′-(trifluoromethyl)biphenyl-4-yl]-1,2,4-oxadiazole], 57 nM; as for `Cc1cc(-c2nc(-c3ccccc3OC(F)(F)F)no2)ccc1N1CCCCC1` [Compound I58, 1-(2-methyl-4-{3-[2-(trifluoromethoxy)phenyl]-1,2,4-oxadiazol-5-yl}phenyl)piperidine], 39 nM.
The value for `COc1ccccc1-c1noc(-c2ccc(N3CCOCC3)c(C)c2)n1` [Compound I64, 4-{4-[3-(2-methoxyphenyl)-1,2,4-oxadiazol-5-yl]-2-methylphenyl}morpholine] was 98 nM; that for `COc1ccc(-c2ccc(-c3nc(-c4ccccc4OC)no3)cc2C)c(OC)c1` [Compound I47, 5-(2′,4′-dimethoxy-2-methylbiphenyl-4-yl)-3-(2-methoxyphenyl)-1,2,4-oxadiazole] was 1200 nM.
With `O=[N+]([O-])c1cc(-c2nc(-c3ccccc3OC(F)(F)F)no2)ccc1N1CCCC(F)(F)C1` [Compound I11, 3,3-difluoro-1-(2-nitro-4-{3-[2-(trifluoromethoxy)phenyl]-1,2,4-oxadiazol-5-yl}phenyl)piperidine], the EC50 came to 80 nM.
As for `COc1ccccc1-c1noc(-c2ccc(N3CCCC3)c([N+](=O)[O-])c2)n1` [Compound I13, 3-(2-methoxyphenyl)-5-(3-nitro-4-pyrrolidin-1-ylphenyl)-1,2,4-oxadiazole], the figure is 132 nM; as for `COc1ccccc1-c1noc(-c2ccc(N3CCCC(F)(F)C3)c(N(S(C)(=O)=O)S(C)(=O)=O)c2)n1` [Compound I37, N-dimethanesulfonyl-2-(3,3-difluoropiperidin-1-yl)-5-{3-[2-(methoxy)phenyl]-1,2,4-oxadiazol-5-yl}aniline], 921 nM; as for `COc1ccccc1-c1noc(-c2ccc(N3C(C)CCC3C)c([N+](=O)[O-])c2)n1` (stereo not shown) [Compound I42, 5-[4-(2,5-dimethylpyrrolidin-1-yl)-3-nitrophenyl]-3-(2-methoxyphenyl)-1,2,4-oxadiazole], 1250 nM.
`O=[N+]([O-])c1cc(-c2nc(-c3ccccc3OC(F)(F)F)no2)ccc1N1CCCCCC1` [Compound I15, 1-(2-nitro-4-{3-[2-(trifluoromethoxy)phenyl]-1,2,4-oxadiazol-5-yl}phenyl)azepane]: the EC50 came out at 1130 nM.
Regarding `COc1ccc(F)cc1-c1noc(-c2ccc(N3C(C)CCC3C)c([N+](=O)[O-])c2)n1` (stereo not shown) [Compound I39, 5-[4-(2,5-dimethylpyrrolidin-1-yl)-3-nitrophenyl]-3-(5-fluoro-2-methoxyphenyl)-1,2,4-oxadiazole], the EC50 was determined as 267 nM.
The value for `O=[N+]([O-])c1cc(-c2nc(-c3ccccc3OC(F)(F)F)no2)ccc1N1CCCCC1` [Compound I31, 1-(2-nitro-4-{3-[2-(trifluoromethoxy)phenyl]-1,2,4-oxadiazol-5-yl}phenyl)piperidine] was 58 nM; that for `CC1CCC(C)N1c1ccc(-c2nc(-c3ccccc3OC(F)(F)F)no2)cc1[N+](=O)[O-]` (stereo not shown) [Compound I38, 5-[4-(2,5-dimethylpyrrolidin-1-yl)-3-nitrophenyl]-3-[2-(trifluoromethoxy)phenyl]-1,2,4-oxadiazole] was 4470 nM; that for `CS(=O)(=O)Nc1cc(-c2nc(-c3ccccc3OC(F)(F)F)no2)ccc1N1CCCC(F)(F)C1` [Compound I43, N-(2-(3,3-difluoropiperidin-1-yl)-5-{3-[2-(trifluoromethoxy)phenyl]-1,2,4-oxadiazol-5-yl}phenyl)methanesulfonamide] was 39 nM.
The value for `COc1ccc(F)cc1-c1noc(-c2ccc(-c3ccccc3C)c(C(=O)O)c2)n1` [Compound I79, 4-[3-(5-fluoro-2-methoxyphenyl)-1,2,4-oxadiazol-5-yl]-2′-methylbiphenyl-2-carboxylic acid] was 657 nM.
